Earlier results as cited in US20230157980A1, “METHODS FOR TREATING HEARING LOSS INCIDENT TO COCHLEAR IMPLANT SURGERY” (HOUGH EAR INSTITUTE, priority 2018, published 2023).

Tested on: hearing loss caused by cochlear implantation

## CC(=O)N[C@@H](CS)C(=O)O [NAC, N-acetylcysteine]
Local NAC, 32 kHz, 4-week post insertion time point
  hearing improvement: barely significant hearing improvement
Local NAC, lower frequencies (below 32 kHz)
  protective effect on hearing: no protective effect
Local administration of NAC
  effect on improving hearing: only modest and transient effects
